Experimental data taken from PubChem BioAssay (NCI).
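Cultured in 96-well plates, cells were exposed to test compound for 48 hours across five concentrations. At the TGI there is no net growth.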

Key:
Test in all cases: NCI tumour cell line growth inhibition, 48 h
[1] = tested on: 786-0 renal
[2] = tested on: A498 renal
[3] = tested on: BT-549 breast
[4] = tested on: CAKI-1 renal
[5] = tested on: CCRF-CEM leukemia
[6] = tested on: HOP-92 NSCLC
[7] = tested on: HS 578T breast
[8] = tested on: HT29 colon
[9] = tested on: IGROV1 ovarian
[10] = tested on: KM12 colon
[11] = tested on: MDA-MB-231 breast
[12] = tested on: NCI-H226 lung
[13] = tested on: SK-MEL-28 melanoma
[14] = tested on: SN12C renal
[15] = tested on: SNB-19 CNS
[16] = tested on: SR leukemia
[17] = tested on: SW-620 colon
[18] = tested on: HCC-2998 colon
[19] = tested on: MDA-N
[20] = tested on: NCI-H522 lung

Row | Structure (SMILES) | TGI [1] [µM] | TGI [2] [µM] | TGI [3] [µM] | TGI [4] [µM] | TGI [5] [µM] | TGI [6] [µM] | TGI [7] [µM] | TGI [8] [µM] | TGI [9] [µM] | TGI [10] [µM] | TGI [11] [µM] | TGI [12] [µM] | TGI [13] [µM] | TGI [14] [µM] | TGI [15] [µM] | TGI [16] [µM] | TGI [17] [µM] | TGI [18] [µM] | TGI [19] [µM] | TGI [20] [µM]
1 | Clc1ccc(/C=c2\nc(-c3ccccc3)n3c2nc2ccccc23)cc1 | > 100 | > 100 | > 100 | > 100 | > 100 | > 100 | > 100 | > 100 | > 100 | > 100 | > 100 | > 100 | 0.952 | > 100 | > 100 | > 100 | > 100 | – | – | –
2 | CCOC(=O)C1C(c2ccco2)C2(C#N)C(=N)OC1(C)C2(C#N)C#N (centres undefined) | > 100 | > 100 | – | > 100 | > 100 | > 100 | > 100 | > 100 | > 100 | > 100 | > 100 | > 100 | – | > 100 | > 100 | – | > 100 | > 100 | > 100 | > 100
3 | CC1(OCc2ccccc2)C(=O)N2C1N(C(=O)OCc1ccccc1)CC2(C)C (centres undefined) | > 100 | > 100 | – | – | > 100 | – | – | > 100 | > 100 | – | – | > 100 | > 100 | > 100 | > 100 | 95 | > 100 | > 100 | – | –
4 | NCc1ccc(O)c(O)c1O | 30.1 | > 100 | 34.2 | > 46.4 | 56.6 | > 96 | 54.9 | 29.2 | > 86.3 | 49 | 43.5 | > 66.7 | > 100 | 37.3 | > 97.3 | 62 | 43.3 | > 81.7 | – | > 90.9
5 | CSC1=C(C(=O)N(COCC[Si](C)(C)C)c2ccccc2Br)CCC(C(C)(C)C)C1 (centres undefined) | 26.2 | 85.9 | > 100 | 18.1 | > 100 | 45.8 | – | 64.4 | > 100 | 42.2 | 30.5 | 34.4 | > 100 | 27.8 | 42.9 | 11.7 | 41 | 27 | – | 24.6
6 | CC(=O)N(CN1C(=O)CCC1C(=O)O)c1ccc(C)cc1 (centres undefined) | > 100 | > 100 | – | > 100 | > 100 | > 100 | > 100 | > 100 | > 100 | > 100 | > 100 | > 100 | > 100 | > 100 | > 100 | – | > 100 | > 100 | > 100 | > 100
7 | O=C(N/C(=C\NC1=NCCS1)C(=O)N1CSC[C@@H]1C(=O)O)c1ccccc1 | > 100 | > 100 | – | > 100 | > 100 | > 100 | – | > 100 | – | > 100 | > 100 | > 100 | > 100 | > 100 | > 100 | – | > 100 | > 100 | > 100 | –
8 | CC(C)NC1CCCCC2c3cc(F)ccc3[C@]12O (some centres undefined) | > 100 | > 100 | – | > 100 | > 100 | – | – | > 100 | > 100 | > 100 | – | > 100 | > 100 | > 100 | > 100 | – | > 100 | > 100 | – | > 100
9 | CC(=O)OC1COC(n2c(O)c(N=Nc3ccc([N+](=O)[O-])cc3)c3cc(Br)c([N+](=O)[O-])cc32)C(OC(C)=O)C1OC(C)=O (centres undefined) | > 100 | – | – | > 100 | > 100 | 78 | – | > 100 | 70.3 | > 100 | – | > 100 | > 100 | > 100 | > 100 | > 100 | > 100 | > 100 | – | > 100
10 | CCOc1ccccc1NC(=O)CSc1nnc(Cc2ccccc2)o1 | 44.8 | > 100 | – | 37.6 | > 100 | – | – | > 100 | > 100 | > 100 | – | 57.5 | > 100 | 64.9 | 48.7 | – | 37.2 | > 100 | – | 40.7
11 | O=C1OCCC12CN(Cc1ccccc1)N=N2 (centres undefined) | > 100 | > 100 | – | > 100 | – | > 100 | – | > 100 | – | > 100 | > 100 | – | > 100 | > 100 | > 100 | 74.6 | > 100 | > 100 | > 100 | > 100
12 | CN(C)CCNC(=O)c1ccccc1Nc1c(Cl)cccc1Cl | 18.9 | – | – | – | 30.4 | – | – | 20 | 36.3 | – | – | 29.4 | 28.2 | 28.7 | 29.9 | 30.9 | 30.2 | 23.7 | – | –
13 | Cc1nc2ccc(F)cc2c2c1CCN2c1ccccc1 | > 100 | 77.2 | 44.2 | – | 53.2 | 37.8 | > 100 | > 100 | > 100 | > 100 | – | 41.8 | 34.3 | – | > 100 | 37 | > 100 | 38.2 | – | 47.1
14 | COc1cc2c(NCCN(C)C)nc3c4cc5c(cc4ccc3c2cc1OC)OCO5 | 6.15 | 5.86 | – | 5.88 | 6.44 | 8.77 | 12.4 | 6.56 | 5.82 | 8.07 | 9.05 | 8.18 | 9.16 | 8.17 | 7.15 | – | 7.22 | 8.93 | 6.99 | 8.02
15 | NC(CCCNc1ccc(O)cc1)C(=O)O (centres undefined) | 31.5 | > 73.1 | – | > 100 | > 71.1 | 63.3 | – | > 100 | 61.5 | > 100 | – | > 100 | > 100 | > 70.6 | > 100 | 55.8 | 42.7 | > 100 | – | > 100
16 | O=c1oc2cc(O)ccc2c(O)c1C(c1ccc2ccccc2c1)c1c(O)c2ccc(O)cc2oc1=O | > 100 | > 100 | > 100 | > 100 | > 100 | > 100 | 59.7 | > 100 | > 100 | > 100 | > 100 | > 100 | > 100 | > 100 | 49.3 | 67.1 | > 100 | > 100 | – | > 100
17 | COc1cccc([C@@H]2C/C(=N\NC(=O)C(=O)N[C@@H](C)c3ccccc3)c3cc4c(cc3N2)OCO4)c1 | > 100 | > 100 | – | > 100 | > 100 | > 100 | > 100 | – | – | > 100 | > 100 | > 100 | > 100 | > 100 | > 100 | – | > 100 | > 100 | 28.4 | –
18 | CC(/C=C/c1ccccc1)=N\N=C(C)\C=C\c1ccccc1 | > 100 | > 100 | – | – | > 100 | – | – | > 100 | > 100 | > 100 | – | > 100 | > 100 | > 100 | – | > 100 | > 100 | > 100 | – | > 100
19 | COC(=O)C12OCC34C(CC5C(C)C6=CC(=O)OC6=CC5(C)C3C(O)C1O)OC(=O)C(OC(C)=O)C24 (centres undefined) | 29.1 | 43.9 | – | 25.2 | 32.4 | 35.2 | – | 33.9 | 65.1 | 32.6 | – | 53.2 | 30.1 | 39.9 | > 91 | 64.6 | 26.2 | 30 | – | 24.6
20 | O=S(Nc1ccccc1)c1ccccc1Oc1ccccc1 (centres undefined) | > 100 | – | – | > 100 | > 100 | – | 19.6 | > 100 | 12.6 | > 100 | > 100 | > 100 | > 100 | > 100 | > 100 | > 100 | > 100 | 87.1 | > 100 | > 100
21 | CCN1C(=O)/C(=C\c2coc3ccccc3c2=O)SC1=S | > 100 | > 100 | – | > 100 | > 100 | > 100 | – | > 100 | > 100 | > 100 | – | > 100 | > 100 | > 100 | > 100 | > 100 | > 100 | > 100 | – | > 100
22 | O=C1CC2(CCN(CC3COc4ccccc4O3)CC2)C(=O)N1N1CCCCCC1 (centres undefined) | > 100 | > 100 | > 100 | > 100 | > 100 | > 100 | > 100 | 47.6 | > 100 | – | > 100 | > 100 | > 100 | > 100 | > 100 | > 100 | – | – | – | > 100
23 | CN(C)CCn1c2c(c3ccccc31)CCc1ccccc1-2 | 28.4 | – | 27.8 | 29.4 | 44.6 | 27 | 29.7 | 21.1 | 21.8 | 26.3 | 29.3 | 26 | 29.9 | 28.3 | 33.5 | 27.1 | 40.4 | 16.7 | – | 29.4
24 | Cc1ccc([N+]2=NC(c3ccc([N+](=O)[O-])cc3)=NN(c3ccccc3)C2)cc1 | > 100 | > 100 | – | – | > 100 | – | – | > 100 | > 100 | – | – | > 100 | > 100 | > 100 | > 100 | > 100 | > 100 | > 100 | – | 39
25 | CC(=O)Oc1c(C)cc2c(c1C)C(C)(C)CN2C(=O)C(C)(C)C | > 100 | > 100 | – | – | > 100 | 74.4 | > 100 | > 100 | > 100 | > 100 | > 100 | > 100 | > 100 | > 100 | > 100 | – | > 100 | > 100 | > 100 | > 100
26 | O=C1CCN=C(NC(=O)C(F)(F)F)N1CCc1c[nH]c2ccccc12 | > 100 | > 100 | – | > 100 | > 100 | > 100 | > 100 | > 100 | > 100 | > 100 | > 100 | > 100 | > 100 | > 100 | > 100 | – | > 100 | > 100 | > 100 | > 100
27 | Cn1c(=O)c2c(nc(N3CCOCC3)n2CCCNCC(O)c2ccc(O)c(O)c2)n(C)c1=O (centres undefined) | > 100 | > 100 | > 100 | > 100 | > 100 | > 100 | > 100 | > 100 | > 100 | > 100 | > 100 | > 100 | > 100 | > 100 | > 100 | > 100 | > 100 | – | – | > 100
28 | COc1cc(C(=O)O)cc2c1[nH]c1ccccc12 | > 25 | – | – | – | > 25 | > 25 | – | > 25 | > 25 | > 25 | – | > 25 | > 25 | > 25 | > 25 | > 25 | > 25 | > 25 | – | > 25
29 | COc1ccc2c(c1)CC[C@@H]1C2CC[C@]2(C)C(=N\O)/C(=N/O)CC12 (some centres undefined) | 31.8 | 34.2 | – | 24.1 | 29.9 | 30.6 | – | 5.14 | 10 | 42.7 | – | 27.1 | – | 36.5 | 32.9 | – | 40.2 | 37.8 | – | 11.5
